Measurements: patent publication US9440952B2, “Compounds inhibiting leucine-rich repeat kinase enzyme activity” (Merck Sharp & Dohme Corp., priority 2013, dated 2016)
pIC50: −log10 of the molar value.

target: T1, LRRK2(G2019S mutation, GST-LRRK2(amino acids 970-2527)) (Homo sapiens, UniProt Q5S007, G2019S); test: LRRK2 Km ATP LanthaScreen Assay; type: biochemical; settings: Km ATP LanthaScreen Assay; LRRK2 G2019S; mean IC50 values; Examples 185-215; read-out: LRRK2 IC5)
T1 construct: GST-LRRK2(amino acids 970-2527); GST (N); purchased Life Technologies Corporation
T1 sequence (Q5S007 970-2527 G2019S): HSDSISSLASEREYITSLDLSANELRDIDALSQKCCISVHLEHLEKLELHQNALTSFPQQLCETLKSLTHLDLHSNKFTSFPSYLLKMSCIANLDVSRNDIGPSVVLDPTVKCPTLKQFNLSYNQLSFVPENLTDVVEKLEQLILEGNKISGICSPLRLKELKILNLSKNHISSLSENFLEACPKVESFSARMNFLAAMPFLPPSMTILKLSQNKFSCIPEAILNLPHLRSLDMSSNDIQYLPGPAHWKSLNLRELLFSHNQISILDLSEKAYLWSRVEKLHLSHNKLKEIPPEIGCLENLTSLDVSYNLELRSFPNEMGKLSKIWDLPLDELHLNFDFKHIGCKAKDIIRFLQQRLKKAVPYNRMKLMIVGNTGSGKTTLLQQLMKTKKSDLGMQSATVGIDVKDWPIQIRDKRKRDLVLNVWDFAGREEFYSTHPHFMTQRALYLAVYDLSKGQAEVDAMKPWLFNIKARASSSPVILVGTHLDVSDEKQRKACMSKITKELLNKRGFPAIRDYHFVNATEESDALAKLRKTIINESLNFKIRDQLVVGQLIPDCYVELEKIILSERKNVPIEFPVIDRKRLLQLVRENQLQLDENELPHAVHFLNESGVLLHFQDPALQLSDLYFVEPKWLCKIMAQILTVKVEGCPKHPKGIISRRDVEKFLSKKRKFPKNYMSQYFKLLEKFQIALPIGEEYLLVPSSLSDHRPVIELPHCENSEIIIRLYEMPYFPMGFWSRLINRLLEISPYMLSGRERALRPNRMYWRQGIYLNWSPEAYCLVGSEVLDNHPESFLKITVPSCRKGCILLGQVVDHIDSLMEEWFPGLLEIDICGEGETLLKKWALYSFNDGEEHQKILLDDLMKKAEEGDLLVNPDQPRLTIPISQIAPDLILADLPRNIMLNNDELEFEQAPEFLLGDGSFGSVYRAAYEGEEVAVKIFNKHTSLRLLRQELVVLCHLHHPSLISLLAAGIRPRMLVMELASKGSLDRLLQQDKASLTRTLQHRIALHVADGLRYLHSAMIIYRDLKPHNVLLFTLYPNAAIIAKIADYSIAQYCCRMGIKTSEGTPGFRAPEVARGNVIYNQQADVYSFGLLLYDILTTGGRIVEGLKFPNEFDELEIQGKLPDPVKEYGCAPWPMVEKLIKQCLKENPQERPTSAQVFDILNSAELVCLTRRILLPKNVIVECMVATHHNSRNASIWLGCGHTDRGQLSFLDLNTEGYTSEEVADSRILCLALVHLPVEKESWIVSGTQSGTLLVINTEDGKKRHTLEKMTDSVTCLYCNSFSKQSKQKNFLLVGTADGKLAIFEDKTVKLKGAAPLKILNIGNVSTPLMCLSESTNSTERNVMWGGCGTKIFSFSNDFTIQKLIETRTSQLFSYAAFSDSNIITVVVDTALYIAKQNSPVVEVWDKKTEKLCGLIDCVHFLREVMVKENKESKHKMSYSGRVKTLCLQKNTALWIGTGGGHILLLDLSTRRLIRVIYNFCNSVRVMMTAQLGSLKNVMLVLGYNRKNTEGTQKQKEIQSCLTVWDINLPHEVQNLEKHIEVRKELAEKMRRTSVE
Procedure: Unless otherwise noted, all LRRK2 IC50 data presented in tables refers to the LRRK2 Km ATP LanthaScreen™ Assay that is described in the Biological Assay section.
The data presented for the 5 mM and Km ATP LanthaScreen™ Assay represents mean IC50 values based on several test results and may have reasonable. deviations depending on the specific conditions and reagents used. Reagents for the LRRK2 5 mM and Km ATP LanthaScreen™ Assay were purchased from Life Technologies Corporation.
Results are analysed using Assay Data Analyzer.

First: CC(C)Oc1ccc2[nH]nc(-c3ccnc(N4CCCN(S(C)(=O)=O)CC4)c3)c2c1 [Example 189]
Second: CC(C)Oc1ccc2[nH]nc(-c3ccnc(N4CCN(C5CC5)CC4)c3)c2c1 [Example 210]
The pIC50 of the first is 0.48 log units lower: 7.65 for the first, 8.13 for the second. The second is the more potent here.

Going from `Cc1nc2c(o1)CCN(c1cc(-c3n[nH]c4ccc(OC(C)C)cc34)ccn1)C2` [Example 197] to `CCc1nnc2n1CCN(c1cc(-c3n[nH]c4ccc(OC(C)C)cc34)ccn1)C2` [Example 195], the pIC50 rises from 7.89 to 8.14 (0.25 log units).

`CC(C)Oc1ccc2[nH]nc(-c3ccnc(N4CCCC(c5ccncn5)C4)c3)c2c1` (centres unmarked) [Example 205] and `CC(C)Oc1ccc2[nH]nc(-c3ccnc(N4CCCC(c5nncn5C)C4)c3)c2c1` (centres unmarked) [Example 193] are within 0.2 log units of each other in pIC50: 8.19 for the first, 8.21 for the second.

Going from `CC(C)Oc1ccc2[nH]nc(-c3ccnc(N4CCn5ccnc5C4)c3)c2c1` [Example 196] to `CC(C)Oc1ccc2[nH]nc(-c3ccnc(N4CCN(c5nccs5)CC4)c3)c2c1` [Example 203], the pIC50 falls from 8.07 to 7.87 (0.20 log units).

Work on `Cc1nnc(CN(C)c2cc(-c3n[nH]c4ccc(OC(C)C)cc34)ccn2)o1` [Example 192] yielded a pIC50 of 7.60.

same assay, conditions: Km ATP LanthaScreen Assay; LRRK2 G2019S; mean IC50 values; read-out: LRRK2 IC50

First: CCOc1ccc2[nH]nc(-c3ccnc(N4C[C@@H]5C[C@H]4CO5)c3)c2c1 [Example 221]
Second: COC1CN(c2cc(-c3n[nH]c4ccc(OC(C)C)cc34)ccn2)C1 [Example 183]
The pIC50 of the first is 0.60 log units lower: 7.68 for the first, 8.28 for the second. The second is the more potent here.

First: CN1CCC(O)(CNc2cc(-c3n[nH]c4ccccc34)ccn2)CC1 [Example 47]
Second: O=C1CCC(CNc2cc(-c3n[nH]c4ccccc34)ccn2)N1 (centres unmarked) [Example 44]
The pIC50 of the first is 0.39 log units lower: 7.20 for the first, 7.59 for the second. The second is the more potent here.

Compared with `CC1CN(c2cc(-c3n[nH]c4ccccc34)ccn2)CC(C)O1` (centres unmarked) [Example 31], `C[C@@H]1C[C@@H](O)CN1c1cc(-c2n[nH]c3ccccc23)ccn1` [Example 51] is 0.44 log units lower in pIC50: 7.92 for the first, 7.48 for the second. The first is the more potent here.

Going from `CC(C)Oc1ccc2[nH]nc(-c3ccnc(NC(=O)c4ccc(C#N)cc4)c3)c2c1` [Example 143] to `CC(C)Oc1ccc2[nH]nc(-c3ccnc(NC(=O)c4ccccn4)c3)c2c1` [Example 144], the pIC50 rises from 6.95 to 7.53 (0.58 log units). The second is the more potent here.

Compared with `Cc1cc(C(=O)Nc2cc(-c3n[nH]c4ccc(OC(C)C)cc34)ccn2)n(C)n1` [Example 141], `CC(C)Oc1ccc2[nH]nc(-c3ccnc(NC(=O)c4cc(F)cc(F)c4)c3)c2c1` [Example 169] is 0.52 log units lower in pIC50: 7.29 for the first, 6.77 for the second. The first is the more potent here.

Going from `CN1CCCC(CN(C)c2cc(-c3n[nH]c4ccccc34)ccn2)C1` (centres unmarked) [Example 32] to `c1ccc2c(-c3ccnc(N4CCSCC4)c3)n[nH]c2c1` [Example 12], the pIC50 rises from 7.12 to 7.34 (0.22 log units).

First: [2H]C1([2H])OC([2H])([2H])C([2H])([2H])N(c2cc(-c3n[nH]c4ccc(OC(C)C)cc34)ccn2)C1([2H])[2H] [Example 281]
Second: CO[C@H]1CCN(c2cc(-c3n[nH]c4ccc(OC(C)C)cc34)ccn2)C1 [Example 177]
The pIC50 of the first is 0.57 log units higher: 8.85 for the first, 8.28 for the second. The first is the more potent here.

Compared with `FC(F)(F)CN1CCN(c2cc(-c3n[nH]c4ccc(OC(F)(F)F)cc34)ccn2)CC1` [Example 237], `CO[C@@H]1CCN(c2cc(-c3n[nH]c4ccc(OC(F)(F)F)cc34)ccn2)C1` [Example 250] is 0.48 log units lower in pIC50: 6.55 for the first, 6.07 for the second.

Going from `CC(C)Oc1ccc2[nH]nc(-c3ccnc(NCCc4ccccn4)c3)c2c1` [Example 133] to `Cc1nonc1CC(=O)Nc1cc(-c2n[nH]c3ccc(OC(C)C)cc23)ccn1` [Example 161], the pIC50 falls from 9.10 to 7.49 (1.61 log units). The first is the more potent here.

`c1ccc2c(-c3ccnc(N4CCC(CN5CCOCC5)CC4)c3)n[nH]c2c1` [Example 40] and `c1ccc2c(-c3ccnc(N4CCC(N5CCOCC5)CC4)c3)n[nH]c2c1` [Example 27] are within 0.2 log units of each other in pIC50: 7.55 for the first, 7.49 for the second.

Compared with `OC1(c2ccncc2)CCN(c2cc(-c3n[nH]c4ccccc34)ccn2)CC1` [Example 25], `N#CC1(c2ccccc2)CCN(c2cc(-c3n[nH]c4ccccc34)ccn2)CC1` [Example 14] is 0.51 log units lower in pIC50: 7.68 for the first, 7.17 for the second. The first is the more potent here.

Compared with `COC1(C)CN(c2cc(-c3n[nH]c4ccc(OC(F)(F)F)cc34)ccn2)C1` [Example 253], `FC(F)(F)Oc1ccc2[nH]nc(-c3ccnc(N4CCc5nc(C6CC6)oc5C4)c3)c2c1` [Example 252] is 0.55 log units lower in pIC50: 6.70 for the first, 6.15 for the second.

Compared with `CS(=O)(=O)N1CCN(c2cc(-c3n[nH]c4ccccc34)ccn2)CC1` [Example 18], `CS(=O)(=O)C1CN(c2cc(-c3n[nH]c4ccc(O)cc34)ccn2)C1` [Example 255] is 0.26 log units lower in pIC50: 7.77 for the first, 7.51 for the second.

Compared with `CN1CCN(c2cc(-c3n[nH]c4ccc(-c5ccnc(O)c5)cc34)ccn2)CC1` [Example 123], `COc1cnccc1-c1ccc2[nH]nc(-c3ccnc(N4CCOCC4)c3)c2c1` [Example 102] is 1.13 log units higher in pIC50: 8.57 for the first, 9.70 for the second. The second is the more potent here.

Going from `CN(C)Cc1ccc2[nH]nc(-c3ccnc(N4CCOCC4)c3)c2c1` [Example 89] to `COCCN(C)c1cc(-c2n[nH]c3ccc(OC(C)C)cc23)ccn1` [Example 136], the pIC50 rises from 7.46 to 8.31 (0.85 log units). The second is the more potent here.

Going from `c1ccc2c(-c3ccnc(NCCCn4ccnc4)c3)n[nH]c2c1` [Example 42] to `CC(C)Oc1ccc2[nH]nc(-c3ccnc(NC(=O)C4CC45CCCC5)c3)c2c1` (centres unmarked) [Example 160], the pIC50 falls from 7.51 to 6.85 (0.66 log units).

same assay, conditions: Km ATP LanthaScreen; mean IC50 of several tests; read-out: LRRK2 IC50

Compared with `CC(C)Oc1ccc2[nH]nc(-c3ccnc(N4CCCC4=O)c3)c2c1` [Example 302], `CC(C)Oc1ccc2[nH]nc(-c3ccnc(N4CC5(COC5)C4)c3)c2c1` [Example 283] is 0.61 log units higher in pIC50: 7.62 for the first, 8.23 for the second.

First: c1ccc(Cc2ccc3[nH]nc(-c4ccnc(N5CCOCC5)c4)c3c2)cc1 [Example 116]
Second: c1cc(-c2ccc3[nH]nc(-c4ccnc(N5CCOCC5)c4)c3c2)ccn1 [Example 97]
The pIC50 of the first is 0.51 log units lower: 7.35 for the first, 7.86 for the second.

`Cc1ccc2[nH]nc(-c3ccnc(N4CCOCC4)c3)c2c1` [Example 124] and `OCCOc1ccc2[nH]nc(-c3ccnc(N4CCOCC4)c3)c2c1` [Example 363] are within 0.2 log units of each other in pIC50: 8.02 for the first, 8.03 for the second.

First: COc1cccc(S(=O)(=O)Nc2cc(-c3n[nH]c4ccc(OC(C)C)cc34)ccn2)c1 [Example 257]
Second: CC(C)Oc1ccc2[nH]nc(-c3ccnc(NS(=O)(=O)Cc4ccccn4)c3)c2c1 [Example 261]
The pIC50 of the first is 0.20 log units higher: 7.11 for the first, 6.91 for the second. The first is the more potent here.

Compared with `CCOc1ccc2[nH]nc(-c3ccnc(NCCO)c3)c2c1` [Example 355], `CCOc1ccc2[nH]nc(-c3ccnc(NCCOC)c3)c2c1` [Example 354] is 0.21 log units higher in pIC50: 8.00 for the first, 8.21 for the second. The second is the more potent here.

Compared with `CCCc1cnc(-c2ccc3[nH]nc(-c4ccnc(N5CCOCC5)c4)c3c2)nc1` [Example 335], `Fc1cnc(-c2ccc3[nH]nc(-c4ccnc(N5CCOCC5)c4)c3c2)nc1` [Example 337] is 0.89 log units lower in pIC50: 8.27 for the first, 7.38 for the second. The first is the more potent here.

First: c1cc(-c2ccc3[nH]nc(-c4ccnc(N5CCOCC5)c4)c3c2)cnn1 [Example 319]
Second: Oc1cc(-c2ccc3[nH]nc(-c4ccnc(N5CCOCC5)c4)c3c2)ccn1 [Example 100]
The pIC50 of the first is 0.38 log units lower: 8.09 for the first, 8.47 for the second.

Going from `Cn1cc(-c2cc3c(-c4ccnc(N5CC(F)C5)c4)n[nH]c3cc2F)cn1` [Ex 353] to `Cn1cc(-c2ccc3[nH]nc(-c4ccnc(N5C[C@H](F)[C@@H](F)C5)c4)c3c2)cn1` [Example 271], the pIC50 rises from 8.34 to 8.66 (0.32 log units). The second is the more potent here.

Going from `CC(C)Oc1cc2c(-c3ccnc(N4CCOCC4)c3)n[nH]c2cc1F` [Example 364] to `COCC(C)Oc1ccc2[nH]nc(-c3ccnc(N4CCOCC4)c3)c2c1` (centres unmarked) [Example 305], the pIC50 falls from 8.72 to 8.27 (0.45 log units).

`Cc1ncc(-c2ccc3[nH]nc(-c4ccnc(N5CC(F)C5)c4)c3c2)n1C` [Example 307] and `Cc1ncc(-c2ccc3[nH]nc(-c4ccnc(N5CCOCC5)c4)c3c2)n1C` [Example 317] are within 0.2 log units of each other in pIC50: 8.68 for the first, 8.85 for the second.

Compared with `CCOc1ccc2[nH]nc(-c3ccnc(N4CCCC4)c3)c2c1` [Example 297], `CCCOc1ccc2[nH]nc(-c3ccnc(N4CCCCC4)c3)c2c1` [Example 300] is 0.63 log units lower in pIC50: 8.14 for the first, 7.51 for the second.

Going from `Cn1cnnc1-c1ccc2[nH]nc(-c3ccnc(N4CC(F)C4)c3)c2c1` [Example 309] to `Cc1noc(C2CN(c3cc(-c4n[nH]c5ccc(-c6cnn(C)c6)cc45)ccn3)C2)n1` [Example 275], the pIC50 falls from 8.74 to 8.25 (0.49 log units). The first is the more potent here.

First: CCOc1ccc2[nH]nc(-c3ccnc(N4CCS(=O)(=O)CC4)c3)c2c1 [Example 298]
Second: CC(C)Oc1ccc2[nH]nc(-c3ccnc(N4CCN(C)C(C)C4)c3)c2c1 (centres unmarked) [Example 384]
The pIC50 of the first is 1.37 log units lower: 7.29 for the first, 8.66 for the second.

`Cn1cc(-c2ccc3[nH]nc(-c4ccnc(N5CCC(n6cncn6)CC5)c4)c3c2)cn1` [Example 270] and `Cn1cc(-c2ccc3[nH]nc(-c4ccnc(N5CCCCC5)c4)c3c2)cn1` [Example 266] are within 0.2 log units of each other in pIC50: 8.66 for the first, 8.62 for the second.

First: FC(F)n1cc(-c2ccc3[nH]nc(-c4ccnc(N5CCOCC5)c4)c3c2)cn1 [Example 396]
Second: c1cc(-c2n[nH]c3ccc(-c4cn[nH]c4)cc23)cc(N2CCOCC2)n1 [Example 344]
The pIC50 of the first is lower: 8.55 for the first, over 9.22 for the second. The second is the more potent here.

Compared with `c1cc(-c2n[nH]c3ccc(-c4cnco4)cc23)cc(N2CCOCC2)n1` [Example 322], `Cn1nccc1-c1ccc2[nH]nc(-c3ccnc(N4CCOCC4)c3)c2c1` [Example 345] is 1.44 log units lower in pIC50: 9.18 for the first, 7.74 for the second.

Compared with `COc1ccccc1Nc1cc(-c2n[nH]c3ccc(Nc4cccc(S(C)(=O)=O)c4)cc23)ccn1` [Example 113], `COc1cccc(F)c1-c1ccc2[nH]nc(-c3ccnc(N4CCOCC4)c3)c2c1` [Example 314] is higher in pIC50: 6.37 for the first, over 9.22 for the second.

`COc1ccncc1-c1ccc2[nH]nc(-c3ccnc(N4CCOCC4=O)c3)c2c1` [Example 365] and `COc1ccc(-c2ccc3[nH]nc(-c4ccnc(N5CCOCC5)c4)c3c2)cn1` [Ex 329] are within 0.2 log units of each other in pIC50: 7.77 for the first, 7.85 for the second.

Going from `c1cc(-c2ccc3[nH]nc(-c4ccnc(N5CCOCC5)c4)c3c2)cc(N2CCOCC2)n1` [Example 399] to `Cn1cc(-c2ccc3[nH]nc(-c4ccnc(N5CCC(F)(F)CC5)c4)c3c2)cn1` [Example 273], the pIC50 rises from 7.13 to 8.52 (1.39 log units).

For `CC(C)Oc1ccc2[nH]nc(-c3ccnc(N4CC5CCC(C4)O5)c3)c2c1` [Example 280], the pIC50 was 8.30.
